Test results from patent US4575560A, “Insecticidal diaminoguanidine hydrazone compounds” (American Cyanamid Company, priority 1985, dated 1986).
Values after ≈ are worked out from the molar mass of the structure shown. Read-outs that look alike come from different tables or passages of the source.

How the values were obtained:
[1] = test system: Tobacco Budworm 3rd Instar; assay: Tobacco budworm secondary test, third-instar larvae on treated cotton cotyledons; format: in vivo, Heliothis virescens (Fabricus)
[2] = test system: Tobacco Budworm 1st Instar; assay: Tobacco budworm initial test, treated eggs / newly hatched (1st instar) larvae on treated cotton leaves; format: in vivo, Heliothis virescens (Fabricus)
Protocol: (§1) Test formulations and procedures used for evaluation are as follows:
A. 100 mg of the test material is weighed, placed in a funnel over a 113 g narrow-mouth bottle, rinsed into the bottle with a 35 mL scoop of acetone, followed by a 35 mL scoop of water and another 35 mL scoop of acetone to yield 1000 ppm in 65% acetone. If the material is not soluble, it is broken up with a glass rod and used as a suspension.
B. This stock solution ("A") is used to make 300 ppm solutions or suspensions by pipetting 30 mL of "A" into a bottle containing 70 mL of 50% acetone to yield 300 ppm. Further dilutions in 50% acetone are made as required.
C. Tests requiring 10 ppm acetone solutions: 1 mL of "A" is pipetted into 99 mL of acetone to yield 10 ppm. Additional dilutions are made using 50% acetone as required.
Tobacco Budworm--Heliothis virescens (Fabricus)
A cotton plant with two true leaves expanded is dipped for three seconds with agitation in 300 ppm solution. A 1.27 to 1.91 cm square of cheesecloth with about 50 to 100 budworm eggs 0-24 hours old is also dipped in the test solution and placed on a leaf of the cotton plant, all being placed in the hood to dry. The leaf with the treated budworm eggs is removed from the plant and placed in a 226 g Dixie cup with a wet 5 cm piece of dental wick and covered with a lid. The other leaf is placed in a similar cup with a wick and a piece of cheesecloth infested with 50-100 newly hatched larvae is added before covering the cup with a lid. After three days at 80° F., 50% relative humidity, observations of egg hatch are made, as well as kill of newly hatched larvae, any inhibition of feeding, or interference of any sort with normal development.

Southern Armyworm = assay: Southern armyworm test, third-instar larvae on treated Sieva lima bean leaves; format: in vivo, Spodoptera eridania (Cramer)
Procedure, shortened: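 Sieva lima bean plants, primary leaves expanded to 1.91 cm, were dipped with agitation for three seconds in test material dissolved in 65% acetone, with further dilutions in acetone, then air-dried in a hood. A treated leaf was placed in a 9 cm petri dish on moist filter paper with 10 third-instar Spodoptera eridania larvae about 1 cm long. Dishes were covered and kept at 80° F. and 50% r.h. Mortality and feeding were assessed after two days.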

Tobacco Budworm = assay: Tobacco budworm LC50 and FD50 (instar not stated); format: in vivo, Heliothis virescens (Fabricus)
Description: as §1
FD50 = The concentration of insecticide required to reduce insect

[3] = Heliothis virescens, read-out: LC50 Tobacco Budworm

SMILES	Mortality Rating Tobacco Budworm 3rd Instar ([1]; 100 ppm)	Mortality Rating Tobacco Budworm 3rd Instar ([1]; 1000 ppm)	Mortality Rating Tobacco Budworm 1st Instar ([2]; 100 ppm)	Mortality Rating Tobacco Budworm 1st Instar ([2]; 300 ppm)	Mortality Rating Southern Armyworm (Southern Armyworm; 10 ppm, third-instar larvae)	Mortality Rating Southern Armyworm (Southern Armyworm; 100 ppm, third-instar larvae)	Mortality Rating Southern Armyworm (Southern Armyworm; 1000 ppm, third-instar larvae)	LC50 (Southern Armyworm; Spodoptera eridania, read-out: LC50 Southern Armyworm) [µg/mL]	LC50 (Tobacco Budworm; [3]) [µg/mL]	Mortality Rating Tobacco Budworm 3rd Instar ([1]; 10 ppm)	Mortality Rating Tobacco Budworm 1st Instar ([2]; 10 ppm)	LC50 (Southern Armyworm; Spodoptera eridania; read-out: LC50 Southern Armyworm) [µg/mL]	LC50 (Tobacco Budworm; Heliothis virescens; read-out: LC50 Tobacco Budworm) [µg/mL]
CN(C)C(=O)N(N=Cc1ccc(OC(F)(F)C(F)F)cc1)C(=N)NN=Cc1ccc(OC(F)(F)C(F)F)cc1 [HCF2 CF2 O / HCF2 CF2 O / CH3 / CH3, 4,4-dimethyl-2-{[p-(1,1,2,2-tetrafluoroethoxy)benzylidene]amino}-allophanimidic acid [p-(1,1,2,2-tetrafluoroethoxy)benzylidene]hydrazide]	2 (26-35%)	8 (86-99%)	5 (56-65%)	9 (100%)	0 (No effect)	9 (100%)	9 (100%)	7 (≈ 12.3 µM)	491 (≈ 864 µM)				
CN(C)C(=O)N(N=Cc1ccc(C(F)(F)F)cc1)C(=N)NN=Cc1ccc(C(F)(F)F)cc1 [CF3 / CF3 / CH3 / CH3]	9 (100%)	9 (100%)	6 (66-75%)	8 (86-99%)	8 (86-99%)	9 (100%)	9 (100%)			0 (No effect)	0 (No effect)	15 (≈ 31.8 µM)	96 (≈ 203 µM)
N=C(NN=Cc1ccc(C(F)(F)F)cc1)N(N=Cc1ccc(C(F)(F)F)cc1)C(=O)NCCCl [CF3 / CF3 / ClCH2 CH2 / H, allophanimidic acid, 4-(2-chloroethyl)-2-{[p-(trifluoromethyl)benzylidene]amino}-allophanimidicacid [p-(trifluoromethyl)benzylidene]hydrazide]	4 (46-55%)	9 (100%)		0 (No effect)		9 (100%)	9 (100%)		654 (≈ 1290 µM)				
